Results published in paper PMC9837035 (Nature Communications, 2023).
Several values for one entry are separate records, joined by “and”; a condition that tells them apart may be missing. Equal values may be shown once. Read-outs that look alike come from different tables or passages of the source.

How the values were obtained:
[1] = system: BCL11A occupancy at the β-globin locus; assay: ChIP-qPCR with antibody against BCL11A in HUDEP-2 cells; assay type: cell-based, human; set-up: ChIP-qPCR, antibody against BCL11A: scale not given here; settings: for occupancies of BCL11A in the BGLT3 gene region: HUDEP-2, 4 days
Protocol: A total of 0.5–1 × 10^6 cells were cross-linked with 1% formaldehyde for 10 min at room temperature and the reaction was quenched with 250 mM glycine. Cross-linked cells were then lysed with buffer 1 (15 mM Tris-HCl (pH 7.5), 60 mM KCl, 15 mM NaCl, 5 mM MgCl2, 0.1 mM EGTA, 300 mM sucrose, […], 1 mM phenylmethanesulfonyl fluoride (PMSF), 0.5% NP40) and incubated on ice for 10 min. After centrifugation, the pellet was re-suspended in buffer 2 (15 mM Tris-HCl (pH 7.5), 60 mM KCl, 15 mM NaCl, 5 mM MgCl2, 0.1 mM EGTA, 1.2 M sucrose, […], 1 mM PMSF). After centrifugation, the pellet was then re-suspended in MNase buffer (50 mM Tris-HCl (pH 7.5), 1 mM CaCl2, 4 mM MgCl2, 320 mM sucrose, 1 mM PMSF) and digested with 100 U of micrococcal nuclease (Takara) at 37 °C for 15 min. After the reaction was quenched with 20 mM EDTA, the supernatants were incubated with antibodies (anti-H3K9me2 (1:100), Abcam, ab1220; anti-H3K9ac (1:100), Active Motif, 39917; Goat anti-IgG (H + L) (1:100), Jackson Immunoresearch; anti-BCL11A (1:100), Novus Biologicals, NB600-261; anti-ZBTB7A (1:100), Thermo Fisher Scientific, eBioscience (13E9); anti-CHD3 (1:100), Novus Biologicals, NB-100-60412; anti-CHD4 (1:100), abcam, ab240640) and Protein A/G PLUS-Agarose (Santa Cruz Biotechnology) overnight at 4 °C. Beads were washed sequentially once with the following buffers: wash buffer A (50 mM Tris-HCl (pH 7.5), 75 mM NaCl, 10 mM EDTA, 0.01% NP40), wash buffer B (50 mM Tris-HCl (pH 7.5), 100 mM NaCl, 10 mM EDTA, 0.01% NP40), wash buffer C (50 mM Tris-HCl (pH 7.5), 175 mM NaCl, 10 mM EDTA, 0.01% NP40). After treatment with proteinase K in buffer 4 (20 mM Tris-HCl (pH 8.0), 10 mM EDTA, 400 mM NaCl, 0.5% SDS) at 56 °C overnight, DNA was purified using the FastGene Gel/PCR Extraction Kit (Nippon Genetics). The samples were analyzed by qPCR. Primers are listed in Supplementary Table 10. ChIP-seq experiments were performed by GENEWIZ. Tracks were visualized using the integrative genome viewer. ChIP-seq analysis were analyzed Cutadapt (V1.9.1) for QC, FastQC (V0.10.1) for QC assessment, Bowtie (V2.1.0) for mapping, strand cross-correlation (SCC) for ChIP quality assessment, MACS2 for peak calling, and R package ChIPpeakAnno for Peak annotated.

[2] = biological target: T1, G9a SET domain (Homo sapiens, UniProt Q96KQ7); assay: Surface plasmon resonance (SPR); assay type: binding
T1 construct: the human G9a SET domain (residues 913–1193) was synthesized using the E. coli cell-free synthesis method; made in house; host or cells: E. coli cell-free synthesis
T1 sequence (Q96KQ7 913-1193): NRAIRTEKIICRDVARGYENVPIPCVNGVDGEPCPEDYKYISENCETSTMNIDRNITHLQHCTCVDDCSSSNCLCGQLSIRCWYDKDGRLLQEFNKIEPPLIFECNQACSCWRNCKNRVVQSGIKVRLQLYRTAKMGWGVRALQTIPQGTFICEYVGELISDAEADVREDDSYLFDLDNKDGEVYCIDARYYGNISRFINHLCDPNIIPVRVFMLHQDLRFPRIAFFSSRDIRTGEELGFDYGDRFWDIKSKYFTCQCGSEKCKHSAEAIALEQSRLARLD
Protocol: For crystal structure analysis, the human G9a SET domain (residues 913–1193) was synthesized using the E. coli cell-free synthesis method[48],[49] and purified in the same manner as described previously, except that the final size-exclusion column chromatography using HiLoad Superdex 200 16/60 (GE Healthcare) was equilibrated with 20 mM Tris-HCl buffer (pH 8.0) containing 400 mM NaCl. […] Crystals were grown by the hanging drop method at 293 K, where the sample solution was mixed with an equal volume of a reservoir solution containing 100 mM Bis-Tris propane (pH 7.4), 200 mM sodium formate, 10% ethylene glycol, and 25% PEG 3350. The harvested crystals were coated with Paratone-N oil (Hampton Research) before being flash-cooled in liquid nitrogen. Diffraction data were collected at the X06DA beamline of the Swiss Light Source, Paul Scherrer Institut (Villigen, Switzerland), and were processed and scaled with XDS[51], AIMLESS[52], and other CCP4 programs. The structure of G9a with UNC0638 (PDB ID: 3RJW)[23] was used for the initial phase determination by the molecular replacement method with Phaser[53]. The topology and parameter file for the inhibitor was generated with eLBOW[54] from SMILES strings. Structure refinement was carried out with Phenix[55] and manual model building using COOT[56]. Crystallographic statistics are summarized in Supplementary Table 3.
SPR was performed using a Biacore T200 (Cytiva) and Series S Sensorchip SA (Cytiva, BR100531) at the temperature of 25 °C. A solution of PBS, 0.005% TWEEN20 (Sigma, P9416), 0.5 mM TCEP (Nacalai Tesque, 06342-21), and 2% DMSO (Sigma, 276855) was filtered with a 0.22-μm filter and used as the running buffer. Kinetic measurements were carried out at a flow rate of 30 μL/min, and the association and dissociation phases were monitored for 120 s and 120–300 s, respectively. The G9a SET domain was biotinylated by using NHS-PEG4-Biotin (Thermo, 39259), and captured to flow cells 2, 3, and 4 with immobilization levels of ~2300 RU. No specific treatment was applied to the reference surface (flow cell 1). To prevent oxidation of the immobilized protein, a solution containing 1 μM ZnCl2 and 5 mM TCEP was injected at a flow rate of 10 μL/min for 60 s before each set of kinetic measurements. The extra wash command was executed after each measurement cycle with 50% DMSO aqueous solution. To correct for bulk responses, solvent correction was performed once after all kinetics runs by using running buffer containing 1–3% DMSO. The sensorgrams obtained from the three flow cells were analyzed individually by Biacore T200 Evaluation Software (Cytiva). The dissociation constant (KD) and binding kinetic parameters were calculated by a curve fit to a built-in 1:1 binding model.

[3] = single run, read-out: Dissociation constant (Kd)

NC(=O)NO [Hydroxyurea, hydroxyurea]
ChIP-qPCR, antibody against BCL11A ([1]; BGLT3 locus, HUDEP-2 cells treated with hydroxyurea, replicates 1a-3b): 0.8842 and 1.017 and 0.83 and 0.5175 and 0.6913 and 0.7867
ChIP-qPCR, antibody against BCL11A ([1]; HS1, HUDEP-2 cells treated with hydroxyurea, replicates 1a-3b): 1.064 and 0.5507 and 0.5814 and 1.256 and 1.601 and 1.4807
ChIP-qPCR, antibody against BCL11A ([1]; HS2, HUDEP-2 cells treated with hydroxyurea, replicates 1a-3b): 0.08682 and 2.447 and 1.693 and 2.52 and 0.949 and 0.09517
ChIP-qPCR, antibody against BCL11A ([1]; HS3, HUDEP-2 cells treated with hydroxyurea, replicates 1a-3b): 1.655 and 3.8122 and 0.8818 and 0.7067 and 0.6435 and 2.151
ChIP-qPCR, antibody against BCL11A ([1]; HS4, HUDEP-2 cells treated with hydroxyurea, replicates 1a-3b): 0.8173 and 1.536 and 0.3618 and 0.975 and 1.091 and 0.6403
occupancies of BCL11A in the BGLT3 gene region [1]: decreased
ChIP-qPCR, antibody against BCL11A ([1]; β-globin promoter, HUDEP-2 cells treated with hydroxyurea, replicates 1a-3b): 0.5672 and 1.0178 and 0.4614 and 1.054 and 0.8774 and 0.8041
ChIP-qPCR, antibody against BCL11A ([1]; γ-globin promoter, HUDEP-2 cells treated with hydroxyurea, replicates 1a-3b): 0.6219 and 0.3788 and 0.8175 and 0.7872 and 0.7026 and 0.3349
ChIP-qPCR, antibody against BCL11A ([1]; δ-globin promoter, HUDEP-2 cells treated with hydroxyurea, replicates 1a-3b): 0.5737 and 0.8872 and 0.4941 and 0.547 and 0.6567 and 0.5438

Cc1c(C(=O)NC(CCC2CC2)C(=O)Nc2ccc(C#N)cc2)[nH]c2c1C(=O)CC(C)(C)C2 (stereo not shown) [RK-701]
binding to G9a by SPR [2]: reversible binding
Kd ([2]; absence of SAM, read-out: Kd): 0.75 µM
Kd ([2]; earlier SPR conditions, peer review file, read-out: Kd before re-analysis): 2.4 µM
Kd [2, 3]: 0.743 µM and 0.731 µM and 0.761 µM
ChIP-qPCR, antibody against BCL11A ([1]; BGLT3 locus, HUDEP-2 cells treated with RK-701, replicates): 0.6314 and 0.7848 and 0.4856 and 0.8245 and 0.6776 and 0.5891
ChIP-qPCR, antibody against BCL11A ([1]; HS1, HUDEP-2 cells treated with RK-701, replicates): 0.3627 and 0.3768 and 0.661 and 0.2587 and 0.1661 and 0.2446
ChIP-qPCR, antibody against BCL11A ([1]; HS2, HUDEP-2 cells treated with RK-701, replicates): 0.4595 and 0.8137 and 0.6566 and 1.335 and 1.936 and 0.6063 and 1.138 and 0.7851
ChIP-qPCR, antibody against BCL11A ([1]; HS3, HUDEP-2 cells treated with RK-701, replicates): 0.4555 and 0.6595 and 0.2297 and 0.7103 and 0.2788 and 0.5275
ChIP-qPCR, antibody against BCL11A ([1]; HS4, HUDEP-2 cells treated with RK-701, replicates): 0.3987 and 0.3554 and 0.6174 and 0.2389
occupancies of BCL11A in the BGLT3 gene region [1]: significantly suppressed
ChIP-qPCR, antibody against BCL11A ([1]; β-globin promoter, HUDEP-2 cells treated with RK-701, replicates): 0.04573 and 0.1654 and 0.1051 and 0.1187 and 0.1597 and 0.09847 and 0.07533
ChIP-qPCR, antibody against BCL11A ([1]; γ-globin promoter, HUDEP-2 cells treated with RK-701, replicates): 0.1313 and 0.1159 and 0.3396 and 0.07171 and 0.121 and 0.0314
ChIP-qPCR, antibody against BCL11A ([1]; δ-globin promoter, HUDEP-2 cells treated with RK-701, replicates): 0.018 and 0.05206 and 0.04359 and 0.0353 and 0.01403 and 0.04746

Cc1c(C(=O)N[C@H](CCC2CC2)C(=O)Nc2ccc(C#N)cc2)[nH]c2c1C(=O)CC(C)(C)C2 [RK-0133114]
binding to G9a by SPR [2]: failed to detect the binding
Kd ([2]; mean of three kinetics runs, read-out: KD): > 20 µM
Kd [2, 3]: > 20 µM
